Measurements taken from ChEMBL document CHEMBL4665709, “Rational Avoidance of Protease Cleavage Sites and Symmetrical End-Tagging Significantly Enhances the Stability and Therapeutic Potential of Antimicrobial Peptides” (J Med Chem, 2020).
In brackets after ≈: the same amount, converted by molar mass. Activity calls are given as the source filed them. The rule behind the calls is not given here. Where a SMILES comes first, the peptide text is derived from it.

What was measured:
[1] = Therapeutic index, ratio of MHC for human RBC to geometric mean of peptide MIC for Streptococcus agalactiae H92; assay type: toxicity; details: human red blood cells (RBC), read-out: TI
[2] = Therapeutic index, ratio of MHC for human RBC to geometric mean of peptide MIC for Staphylococcus epidermidis ATCC 12228; assay type: toxicity; details: human red blood cells (RBC), read-out: TI
[3] = Therapeutic index, ratio of MHC for human RBC to geometric mean of peptide MIC for Enterococcus faecalis ATCC 29212; assay type: toxicity; details: human red blood cells (RBC), read-out: TI
[4] = Therapeutic index, ratio of MHC for human RBC to geometric mean of peptide MIC for Staphylococcus aureus ATCC 29213; assay type: toxicity; details: human red blood cells (RBC), read-out: TI
[5] = Therapeutic index, ratio of MHC for human RBC to geometric mean of peptide MIC for Staphylococcus aureus 11011; assay type: toxicity; details: human red blood cells (RBC), read-out: TI
[6] = Therapeutic index, ratio of MHC for human RBC to geometric mean of peptide MIC for Salmonella typhimurium 7731; assay type: toxicity; details: human red blood cells (RBC), read-out: TI
[7] = Therapeutic index, ratio of MHC for human RBC to geometric mean of peptide MIC for Salmonella choleraesuis 503; assay type: toxicity; details: human red blood cells (RBC), read-out: TI
[8] = Therapeutic index, ratio of MHC for human RBC to geometric mean of peptide MIC for Salmonella typhimurium 14028; assay type: toxicity; details: human red blood cells (RBC), read-out: TI
Cell membrane [9] = test: Disruption of membrane integrity in Staphylococcus aureus ATCC 29213 assessed as induction of membrane rupture at 0.5 to 2 times after 1 hr by PI-staining based fluorescence microscopy; assay type: subcellular
Cell membrane [10] = test: Disruption of membrane integrity in Escherichia coli ATCC 25922 assessed as induction of membrane rupture at 0.5 to 2 times MIC after 1 hr by SYTO-9/PI-staining based fluorescence microscopy
Cell membrane [11] = test: Disruption of membrane integrity in Staphylococcus aureus ATCC 29213 assessed as induction of membrane rupture after 1 hr by PI-staining based flow cytometry analysis
Escherichia coli [12] = test: Antibacterial activity against Escherichia coli ATCC 25922 infected in C57BL/6 mouse assessed as reduction in lesion in liver at 10 mg/kg, ip measured after 11 hrs by hematoxylin and eosin staining based assay; assay type: functional, organism-based
Salmonella typhimurium = test: Antibacterial activity against Salmonella typhimurium 7731 after 18 to 24 hrs by CLSI-based broth microdilution method; assay type: functional, Salmonella enterica subsp. enterica serovar Typhimurium; details: Salmonella enterica, time hrs 18-24
[13] = Antibacterial activity against Salmonella pullorum 7913 after 18 to 24 hrs by CLSI-based broth microdilution method; assay type: functional, Salmonella enterica subsp. enterica serovar Pullorum; details: Salmonella enterica, time hrs 18-24
Erythrocyte = test: Hemolytic activity in human RBC assessed as hemolysis; assay type: ADME, cell-based
Escherichia coli [14] = test: Antibacterial activity against Escherichia coli ATCC 25922 after 18 to 24 hrs in presence of 6 uM NH4+ by CLSI-based broth microdilution method; assay type: functional; details: time hrs 18-24
Escherichia coli [15] = test: Antibacterial activity against Escherichia coli ATCC 25922 after 18 to 24 hrs in presence of 6 uM Fe3+ by CLSI-based broth microdilution method; assay type: functional; details: time hrs 18-24
Staphylococcus aureus = test: Antibacterial activity against Staphylococcus aureus ATCC 29213 after 18 to 24 hrs in presence of 8 uM Zn2+ by CLSI-based broth microdilution method; assay type: functional; details: time hrs 18-24
Escherichia coli [16] = test: Antibacterial activity against Escherichia coli 25922 measured over 40 passages; assay type: functional, organism-based; details: ATCC 25922
[17] = Toxicity in C57BL/6 mouse assessed as change in body weigh at 10 mg/kg, ip measured for 5 days; assay type: organism-based; details: in vivo, 120 h, time 5 day
[18] = Toxicity in C57BL/6 mouse assessed as effect on total bilirubin level at 10 mg/kg, ip measured after 5 days; assay type: organism-based; details: in vivo, 120 h, time 5 day
[19] = Toxicity in C57BL/6 mouse assessed as effect on blood urea nitrogen level at 20 mg/kg, ip measured after 5 days; assay type: organism-based; details: in vivo, 120 h, time 5 day
[20] = Toxicity in C57BL/6 mouse assessed as effect on aspartate aminotransferase level at 10 mg/kg, ip measured after 5 days; assay type: organism-based; details: in vivo, 120 h, time 5 day
Escherichia coli [21] = test: Antibacterial activity against Escherichia coli ATCC 25922 infected in C57BL/6 mouse assessed as reduction in bacterial load in kidney at 10 mg/kg, ip measured after 11 hrs (reference value: 7.59 log CFU/g); assay type: functional
Escherichia coli [22] = test: Antibacterial activity against Escherichia coli ATCC 25922 infected in C57BL/6 mouse assessed as reduction in bacterial load in lung at 10 mg/kg, ip measured after 11 hrs (reference value: 6.48 log CFU/g); assay type: functional
Escherichia coli [23] = test: Antibacterial activity against Escherichia coli ATCC 25922 infected in C57BL/6 mouse assessed as reduction in inflammatory cell infiltration in lung at 10 mg/kg, ip measured after 11 hrs by hematoxylin and eosin staining based assay; assay type: functional, organism-based
RAW264.7 = test: Antiinflammatory activity in mouse RAW264.7 cells assessed as inhibition of LPS-induced IL-6 production after 24 hrs by ELISA; assay type: functional, cell-based
[24] = Stability of compound assessed as chymotrypsin (unknown origin)-mediated drug degradation after 8 hrs by RP-HPLC analysis; assay type: ADME; details: human
[25] = Stability of compound assessed as pepsin (unknown origin)-mediated drug degradation after 8 hrs by RP-HPLC analysis; assay type: ADME; details: human
Trypsin = Trypsin (Homo sapiens, UniProt P07477+P07478+P35030); test: Stability of compound assessed as trypsin (unknown origin)-mediated drug degradation after 8 hrs by SDS-PAGE analysis; assay type: ADME, protein assay
[26] = Stability of compound assessed as chymotrypsin (unknown origin)-mediated drug degradation after 8 hrs by SDS-PAGE analysis; assay type: ADME; details: human
Cell membrane [27] = test: Induction of outer membrane permeabilization in Escherichia coli ATCC 25922 after 30 mins by NPN-dye based assay
Cell membrane [28] = test: Induction of cytoplasmic membrane depolarization in Staphylococcus aureus ATCC 29213 at 0.5 to 2 times MIC up to 1000 secs by DiSC3-5 dye-based fluorescence assay; assay type: subcellular; details: time sec <=1000
Cell membrane [29] = test: Induction of membrane in permeabilization Staphylococcus aureus ATCC 29213 after 1 hr by FITC/PI fluorescence staining-based confocal microscopy analysis
Cell membrane [30] = test: Disruption of membrane integrity in Staphylococcus aureus ATCC 29213 assessed as induction of membrane rupture at 2 times MIC after 1 hr by PI-staining based flow cytometry analysis
Cell membrane [31] = test: Induction of morpholoical changes in membrane of Escherichia coli ATCC 25922 assessed as fragmentation in bacterial membrane at 1 times MIC after 1 hr by scanning electron microscopy; assay type: subcellular
Cell membrane [32] = test: Induction of morpholoical changes in membrane of Staphylococcus aureus ATCC 29213 assessed as breakage in bacterial membrane at 1 times MIC after 1 hr by scanning electron microscopy; assay type: subcellular
Cell membrane [33] = test: Induction of morpholoical changes in membrane of Staphylococcus aureus ATCC 29213 assessed as fragmentation in bacterial membrane at 1 times MIC after 1 hr by scanning electron microscopy; assay type: subcellular
Cell membrane [34] = test: Induction of structural changes in membrane of Escherichia coli ATCC 25922 assessed as cytoplasmic membrane separation at 1 times MIC after 1 hr by transmission electron microscopy; assay type: subcellular
Cell membrane [35] = test: Induction of structural changes in membrane of Escherichia coli ATCC 25922 assessed as outer membrane separation at 1 times MIC after 1 hr by transmission electron microscopy; assay type: subcellular

CC[C@H](C)[C@H](N)C(=O)N[C@H](C(=O)N[C@H](C(=O)N[C@@H](CS)C(=O)N[C@@H](CCCNC(=N)N)C(=O)N[C@@H](CCCCN)C(=O)N1CCC[C@H]1C(=O)N[C@H](C(=O)N[C@H](C(=O)N[C@@H](CS)C(=O)N[C@@H](CCCNC(=N)N)C(=O)N[C@@H](CCCCN)C(=O)N1CCC[C@H]1C(=O)N[C@H](C(=O)N[C@H](C(=O)N[C@@H](CS)C(=O)N[C@@H](CCCNC(=N)N)C(=O)N[C@@H](CCCCN)C(=O)N1CCC[C@H]1C(=O)N[C@H](C(=O)N[C@H](C(=O)N[C@@H](CS)C(=O)N[C@@H](CCCNC(=N)N)C(=O)N[C@@H](CCCCN)C(=O)N1CCC[C@H]1C(=O)N[C@H](C(=O)N[C@H](C(=O)N[C@H](C(N)=O)[C@@H](C)CC)[C@@H](C)CC)[C@@H](C)CC)[C@@H](C)CC)[C@@H](C)CC)[C@@H](C)CC)[C@@H](C)CC)[C@@H](C)CC)[C@@H](C)CC)[C@@H](C)CC)[C@@H](C)CC (H-IIICRKPIICRKPIICRKPIICRKPIII-NH2)
selectivity ratio [1]: 28.5 | selectivity ratio [2]: 28.5 | selectivity ratio [3]: 28.5 | selectivity ratio [4]: 28.5 | selectivity ratio [5]: 28.5 | selectivity ratio [6]: 57 | selectivity ratio [7]: 57 | selectivity ratio [8]: 57 | Activity (Cell membrane [9]): Active | Activity (Cell membrane [10]): Active | Activity (Cell membrane [11]): Dose-dependent effect | Activity (Escherichia coli [12]): Active | MIC (Salmonella typhimurium): 2 µM (≈ 6.63 µg/mL) | MIC [13]: 4 µM (≈ 13.3 µg/mL) | MHC (Erythrocyte): > 128 µM | MIC (Escherichia coli [14]): 2 µM | MIC (Escherichia coli [15]): 2 µM | MIC (Staphylococcus aureus): 8 µM | Activity (Escherichia coli [16]): Active | Activity [17]: Non-Toxic | Activity [18]: Non-Toxic | Activity [19]: Non-Toxic | Activity [20]: Non-Toxic | Activity (Escherichia coli [21]): 5.38 log10CFU/g | Activity (Escherichia coli [22]): 5.58 log10CFU/g | Activity (Escherichia coli [23]): Active | Activity (RAW264.7): Dose-dependent effect | Stabilty [24]: Stable | Stabilty [25]: Stable | Stabilty (Trypsin): Stable | Stabilty [26]: Stable | Activity (Cell membrane [27]): Dose-dependent effect | Activity (Cell membrane [28]): Active | Activity (Cell membrane [29]): Active | Activity (Cell membrane [30]): > 90% | Activity (Cell membrane [31]): Active | Activity (Cell membrane [32]): Active | Activity (Cell membrane [33]): Active | Activity (Cell membrane [34]): Active | Activity (Cell membrane [35]): Active
